Measured values: US20240076406A1, “SINGLE DOMAIN ANTIBODIES TARGETING CA-IX AS WELL AS COMPOSITIONS COMPRISING SAME” (National Research Council of Canada, priority 2021, published 2024)

Assays:
[1] = tested on: 67NR^hCA-IX derived spheroids; assay: Spheroid growth inhibition, 67NR^hCA-IX; assay type: cell-based, mouse; details: monitored for 8 days; compared with 67NR derived spheroids
Text: Spheroid growth inhibition.

[2] = target: T1, purified hCA-IX ECD dimer (Homo sapiens, UniProt Q16790); assay: In vitro rhCA-IX enzyme activity inhibition (4Mu-Ac hydrolysis); assay type: biochemical; details: [inhibitor] vs. normalized response - variable slope
T1 construct: in vitro enzyme activity assay using purified hCA-IX ECD dimer
Method: In vitro rhCA-IX enzyme activity inhibition. In order to examine the functional consequence of the binding of the two sdCA9-VHH antibodies to hCA-IX ECD, antibodies were tested in an in vitro enzyme activity assay using purified hCA-IX ECD dimer and 4-Methylumbelliferyl acetate (4Mu-Ac) as substrate.

[3] = tested on: SKRC59 and SKRC52 cell lines (low and high levels of hCA-IX); assay: Cell binding assay, plate format; assay type: cell-based, human; details: cell line of Table 3 not stated
Method: Cell binding assays were performed using a plate-based format, binding was expressed as the mean fluorescent intensity per cell area. (control IgG (●), cG250 (▪), sdCA9-1-Fc (▴), and sdCA9-2-Fc (▾)). KD values were determined by plotting fluorescent intensity measured for each condition of the sdCA9-Fc antibodies using Graphpad Prism. cG250 full sized antibody (FSA) and isotype matching IgG FSA were used as bench mark and negative control, respectively.
Cell binding. […] These cell lines have been used in the literature for the screening of scFv Abs for binding to hCA-IX (Xu et al. 2010). KD values were determined to be in the low nanomolar range, the clinically used cG250 full sized antibody (FSA) was used as a bench mark. An isotype matching hIgG was used as negative control (FIG. 5).

## NS(=O)(=O)c1ccc(NC(=O)Nc2ccc(F)cc2)cc1 [Clone U104, reference compound]
[1]
  spheroid growth, different concentrations: inhibited spheroid growth in a dose-dependent manner
[2]
  HillSlope (best fit value): −0.3305

## cG250: clinically used anti-CA-IX full sized antibody (FSA), used as bench mark [reference compound]
[3]; cell binding, text: low nanomolar range, read-out: KD (best-fit value, one site specific binding)
  Kd: 1.29 nM
[3]; mean fluorescent intensity per cell area
  Bmax (best-fit value, one site specific binding): 574.6
